For 32 molecules, IC50 results are on record in patent publication US11414402B2, “Sulfonamide-substituted cyanopyrrolidines with activity as DUB inhibitors” (MISSION THERAPEUTICS LIMITED, priority 2017, dated 2022).

One experiment has as its target USP30 (Homo sapiens (Human), UniProt Q70CQ3). Kind of experiment: USP30 biochemical IC50 assay (fluorescence polarisation). The settings on record: USP30 CD (57-517); 30 min preincubation at room temp; TAMRA-peptide-ubiquitin substrate 50 nM; read after 2-hour incubation; read-out: IC50 range. The procedure:
(§1) A typical 8-point dilution series would be 100, 30, 10, 3, 1, 0.3, 0.1, 0.03 μM final. […] Either 1 μl of 50% DMSO or diluted compound was added to the plate. USP30 was diluted in reaction buffer (40 mM Tris, pH 7.5, 0.005% Tween 20, 0.5 mg/ml BSA, 5 mM beta-mercaptoethanol) to the equivalent of 0.05 μl/well and 10 μl of diluted USP30 was added to the compound. Enzyme and compound were incubated for 30 min at room temp. Reactions were initiated by the addition of 50 nM of TAMRA labelled peptide linked to ubiquitin via an iso-peptide bond as fluorescence polarisation substrate. Reactions were read immediately after addition of substrate and following a 2-hour incubation at room temperature. Readings were performed on a Pherastar Plus (BMG Labtech). λ Excitation 540 nm; λ Emission 590 nm.
(Polarisation of emitted light reports the rotation of a fluorescent probe.)

The target in the next experiment is UCHL1 (Homo sapiens (Human), UniProt P09936). Kind of experiment: UCHL1 biochemical IC50 assay (fluorescence polarisation). The settings on record: FLAG-UCHL1; 30 min preincubation at room temp; TAMRA-peptide-ubiquitin substrate 50 nM; read after 2-hour incubation; read-out: IC50 range. The procedure: The UCHL1 construct was PCR amplified and cloned into a pFLAG-CMV-6a vector (Sigma-Aldrich) with an N-terminal FLAG tag. HEK293T cells were transfected with FLAG-UCHL1 using TransIT-LT1 transfection reagent (Mirus) according to the manufacturer's instructions. Cells were harvested 40 hours after transfection. […] The resin was washed two times with low salt buffer and one time with high salt buffer (20 mM Tris, pH 7.5, 500 mM NaCl, 0.5 mM EDTA, 5 mM beta-mercaptoethanol, protease inhibitors (complete mini, Roche) and phosphatase inhibitors (PhosSTOP mini, Roche). To elute the bound UCHL1, elution buffer (10 mM Tris, pH 7.5, 150 mM NaCl, 0.5 mM EDTA, 10% glycerol, 0.5% NP40, 5 mM beta-mercaptoethanol, 0.15 mg/ml 3× FLAG peptide (Sigma-Aldrich)) was added to the resin and incubated at 4° C. for 2.5 hours rotating. The resin was centrifuged at 4000 rpm for 30 seconds, and the supernatant containing purified FLAG-UCHL1 was removed and stored at −80° C.
UCHL1 was diluted in reaction buffer (20 mM Tris, pH 7.5, 100 mM NaCl, 0.05% Tween 20, 0.5 mg/ml BSA, 5 mM beta-mercaptoethanol) to the equivalent of 0, 0.01, 0.05, 0.1, 0.5, and 1 μl/well. Buffer was optimised for optimal temperature, pH, reducing agent, salts, time of incubation, and detergent. Reactions were initiated by the addition of 50 nM of TAMRA labelled peptide linked to ubiquitin via an iso-peptide bond as fluorescence polarisation substrate. Reactions were incubated at room temperature and read every 2 min for 120 min. Readings were performed on a Pherastar Plus (BMG Labtech). λ Excitation 540 nm; λ Emission 590 nm.
as §1, with “to” for “would”, “be” for “be 100,”, “0.03, 0.01” for “0.03”, “UCHL1” for “USP30”, “(20” for “(40”, “100 mM NaCl, 0.05%” for “0.005%”

For orientation: IC50 means the concentration at which inhibition is half-maximal.

Sequence of UCHL1 (P09936 whole entry): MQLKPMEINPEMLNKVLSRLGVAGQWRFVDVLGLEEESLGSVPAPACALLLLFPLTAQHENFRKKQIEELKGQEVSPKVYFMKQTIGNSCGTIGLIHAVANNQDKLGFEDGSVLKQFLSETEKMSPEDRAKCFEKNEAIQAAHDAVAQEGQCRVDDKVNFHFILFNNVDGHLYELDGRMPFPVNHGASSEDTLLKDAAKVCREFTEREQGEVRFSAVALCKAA
Sequence of USP30 (Q70CQ3 57-517): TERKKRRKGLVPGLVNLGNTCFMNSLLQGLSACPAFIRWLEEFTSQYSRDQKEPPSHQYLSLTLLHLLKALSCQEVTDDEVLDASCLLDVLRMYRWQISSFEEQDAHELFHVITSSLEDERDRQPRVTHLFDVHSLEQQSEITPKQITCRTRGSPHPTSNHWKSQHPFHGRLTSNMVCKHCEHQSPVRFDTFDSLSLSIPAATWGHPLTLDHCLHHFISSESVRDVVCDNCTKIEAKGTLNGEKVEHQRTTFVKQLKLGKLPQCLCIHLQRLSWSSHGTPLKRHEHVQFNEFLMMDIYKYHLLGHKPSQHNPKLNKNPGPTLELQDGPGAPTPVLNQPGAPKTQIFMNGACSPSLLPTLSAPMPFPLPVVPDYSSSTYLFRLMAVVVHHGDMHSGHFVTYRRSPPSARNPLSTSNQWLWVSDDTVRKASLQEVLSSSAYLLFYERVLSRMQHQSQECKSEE

As to `Cc1ccc(S(=O)(=O)N2CCO[C@@H]3CN(C#N)C[C@H]32)cc1` (racemic) [Example 22, rac-(4aR,7aR)-4-tosylhexahydropyrrolo[3,4-b][1,4]oxazine-6(2H)-carbonitrile], at USP30, the concentration for half-maximal inhibition (IC50) lay in the range of 10000 to 100000 nM.
The same measure, in the same setting: the same measure for `Cc1ccc(CS(=O)(=O)N2CCO[C@H]3CN(C#N)C[C@H]32)cc1` (racemic) [Example 23, rac-(4aR,7aS)-4-(4-methylbenzyl)sulfonyl)hexahydropyrrolo[3,4-b][1,4]oxazine-6(2H)-carbonitrile]: 100 to 1000 nM.
For the molecule `N#CN1CCC(NS(=O)(=O)c2ccccc2-c2ccccc2)C1` (centres unmarked) [Example 1, N-(1-cyanopyrrolidin-3-yl)-[1,1′-biphenyl]-2-sulfonamide], the IC50 at USP30 fell in the range of 100 to 1000 nM; at UCHL1, 10000 to 100000 nM.
The corresponding values for `N#CN1CCC(NS(=O)(=O)c2ccc(-c3ccccc3)cc2)C1` (centres unmarked) [Example 2, N-(1-cyanopyrrolidin-3-yl)-[1,1′-biphenyl]-4-sulfonamide] are 100 to 1000 nM and 1000 to 10000 nM.
The corresponding values for `N#CN1CC[C@@H](NS(=O)(=O)c2ccc(-c3ccccc3)cc2)C1` [Example 3, (R)-N-(1-cyanopyrrolidin-3-yl)-[1,1′-biphenyl]-4-sulfonamide] are 100 to 1000 nM and 10000 to 100000 nM.
The corresponding values for `N#CN1CC[C@H](NS(=O)(=O)c2ccc(-c3ccccc3)cc2)C1` [Example 4, (S)-N-(1-cyanopyrrolidin-3-yl)-[1,1′-biphenyl]-4-sulfonamide] are 100 to 1000 nM and 1000 to 10000 nM.
With `N#CN1CCC(NS(=O)(=O)c2ccccc2)C1` (centres unmarked) [Example 5, N-(1-cyanopyrrolidin-3-yl)benzenesulfonamide], the IC50 on UCHL1 lay within 10000 to 100000 nM.
Turning to `N#CN1CC[C@H](NS(=O)(=O)c2ccccc2)C1` [Example 6, (S)-N-(1-cyanopyrrolidin-3-yl)benzenesulfonamide], the IC50 at USP30 was in the range of 1000 to 10000 nM; at UCHL1, 10000 to 100000 nM.
Consider `N#CN1CC[C@@H](NS(=O)(=O)c2ccccc2)C1` [Example 7, (R)-N-(1-cyanopyrrolidin-3-yl)benzenesulfonamide], for which, at USP30, the 50% inhibitory concentration (IC50) lay within 1000 to 10000 nM.
For `N#CN1CCC(NS(=O)(=O)c2ccc(OCc3ccccc3)cc2)C1` (centres unmarked) [Example 8], the IC50 lay within 100 to 1000 nM at USP30 and 1000 to 10000 nM at UCHL1.
The matching figures for `N#CN1CCC(NS(=O)(=O)c2ccc(-c3cncnc3)cc2)C1` (centres unmarked) [Example 9, N-(1-cyanopyrrolidin-3-yl)-4-(pyrimidin-5-yl)benzenesulfonamide]: 100 to 1000 nM and 1000 to 10000 nM.
`CN1CCN(c2ccc(S(=O)(=O)NC3CCN(C#N)C3)cc2)CC1` (centres unmarked) [Example 10, N-(1-cyanopyrrolidin-3-yl)-4-(4-methylpiperazin-1-yl)benzenesulfonamide]: on USP30, the IC50 was in the range of 1000 to 10000 nM.
In the case of `N#CN1CCC(NS(=O)(=O)c2ccc(-c3ccccc3)cn2)C1` (centres unmarked) [Example 11, N-(1-cyanopyrrolidin-3-yl)-5-phenylpyridine-2-sulfonamide], the IC50 on USP30 was in the range of 100 to 1000 nM; at UCHL1 it was 10000 to 100000 nM.
With `N#CN1CCC(NS(=O)(=O)c2ccc(-c3ccc(F)cc3)cc2)C1` (centres unmarked) [Example 12, N-(1-cyanopyrrolidin-3-yl)-4′-fluoro-[1,1′-biphenyl]-4-sulfonamide], the IC50 on UCHL1 is 1000 to 10000 nM.
Consider `N#CN1CCC(NS(=O)(=O)c2ccc(-c3ccncc3)cc2)C1` (centres unmarked) [Example 13, N-(1-cyanopyrrolidin-3-yl)-4-(pyridin-4-yl)benzenesulfonamide], for which the results for the IC50 at USP30 and on UCHL1 were 100 to 1000 nM and 1000 to 10000 nM, respectively.
On to `N#CN1CCC(NS(=O)(=O)c2ccc(N3CCCCC3)cc2)C1` (centres unmarked) [Example 14, N-(1-cyanopyrrolidin-3-yl)-4-(piperidin-1-yl)benzenesulfonamide], for which the values for the IC50 on USP30 and on UCHL1 were 100 to 1000 nM and 10000 to 100000 nM, respectively.
`Cn1cc(-c2ccc(S(=O)(=O)NC3CCN(C#N)C3)cc2)cn1` (centres unmarked) [Example 15, N-(1-cyanopyrrolidin-3-yl)-4-(1-methyl-1H-pyrazol-4-yl)benzenesulfonamide]: the IC50 at USP30 fell in the range of 100 to 1000 nM; at UCHL1, 1000 to 10000 nM.
The corresponding values for `N#CN1CCC(NS(=O)(=O)c2ccc(Oc3ccccc3)nc2)C1` (centres unmarked) [Example 16, N-(1-cyanopyrrolidin-3-yl)-6-phenoxypyridine-3-sulfonamide] are 100 to 1000 nM and 10000 to 100000 nM.
Regarding `Cc1ccc(F)cc1S(=O)(=O)NC1CCN(C#N)C1` (centres unmarked) [Example 17, N-(1-cyanopyrrolidin-3-yl)-5-fluoro-2-methylbenzenesulfonamide], the IC50 on USP30 fell in the range of 1000 to 10000 nM.
On to `CC(C)c1ccc(S(=O)(=O)NC2CCN(C#N)C2)cc1` (centres unmarked) [Example 18, N-(1-cyanopyrrolidin-3-yl)-4-isopropylbenzenesulfonamide], for which the IC50 lay in the range of 1000 to 10000 nM at USP30 and 10000 to 100000 nM on UCHL1.
Turning to `N#CN1CCC(NS(=O)(=O)c2ccc(Oc3ccc(C(F)(F)F)cn3)cc2)C1` (centres unmarked) [Example 19, N-(1-cyanopyrrolidin-3-yl)-4-((5-(trifluoromethyl)pyridin-2-yl)oxy)benzenesulfonamide], the IC50 on USP30 and at UCHL1 was 100 to 1000 nM each time.
Turning to `CN([C@@H]1CCN(C#N)C1)S(=O)(=O)c1ccc(-c2cccnc2)cc1` [Example 20, (R)—N-(1-cyanopyrrolidin-3-yl)-N-methyl-4-(pyridin-3-yl)benzenesulfonamide], the results for the IC50 on USP30 and at UCHL1 were 100 to 1000 nM and 1000 to 10000 nM, respectively.
With `N#CN1C[C@H]2CCN(S(=O)(=O)c3ccc(-c4cccnc4)cc3)[C@H]2C1` [Example 21, (3aR,6aR)-1-((4-(pyridin-3-yl)phenyl)sulfonyl)hexahydropyrrolo[3,4-b]pyrrole-5(1H)-carbonitrile], the concentration for half-maximal inhibition (IC50) at USP30 was 100 to 1000 nM.
Still for that read-out and setting: the same measure for `N#CN1CCC(S(=O)(=O)N2CCN(c3ccc(F)cc3)CC2)C1` (centres unmarked) [Example 27, 3-((4-(4-fluorophenyl)piperazin-1-yl)sulfonyl)pyrrolidine-1-carbonitrile]: 10000 to 100000 nM.
As for `N#CN1CCC(S(=O)(=O)N2CCN(c3ccccn3)CC2)C1` (centres unmarked) [Example 28], the IC50 on USP30 fell in the range of 100 to 1000 nM.
On the same count and under the same terms, the same measure for `N#CN1CCC(S(=O)(=O)N2CCN(c3ncccn3)CC2)C1` (centres unmarked) [Example 29, 3-((4-(pyrimidin-2-yl)piperazin-1-yl)sulfonyl)pyrrolidine-1-carbonitrile]: 1000 to 10000 nM; for `N#CN1CCC(S(=O)(=O)N2CCC(c3ccc(Cl)cc3)CC2)C1` (centres unmarked) [Example 30, 3-((4-(4-chlorophenyl)piperidin-1-yl)sulfonyl)pyrrolidine-1-carbonitrile]: less than 100 nM.
The same measure, in the same setting: the value for `N#CN1CCC(S(=O)(=O)N2CCC(Cc3ccccc3)CC2)C1` (centres unmarked) [Example 33, 3-((4-benzylpiperidin-1-yl)sulfonyl)pyrrolidine-1-carbonitrile] was 100 to 1000 nM.
Same read-out and setting: the value for `N#CN1CCC(S(=O)(=O)N2CC(c3ccc(Cl)cc3)C2)C1` (centres unmarked) [Example 34, 3-((3-(4-chlorophenyl)azetidin-1-yl)sulfonyl)pyrrolidine-1-carbonitrile] was 100 to 1000 nM; that for `N#CN1CC[C@H](S(=O)(=O)N2CC(c3ccc(Cl)cc3)C2)C1` [Example 35, (S)-3-((3-(4-chlorophenyl)azetidin-1-yl)sulfonyl)pyrrolidine-1-carbonitrile] was 100 to 1000 nM.
In the case of `N#CN1CC[C@@H](S(=O)(=O)N2CC(c3ccc(Cl)cc3)C2)C1` [Example 36, (R)-3-((3-(4-chlorophenyl)azetidin-1-yl)sulfonyl)pyrrolidine-1-carbonitrile], on USP30, the IC50 lay within 100 to 1000 nM.
Still for that read-out and setting: the value for `N#CN1CCC(S(=O)(=O)N2CC(Oc3ccccc3)C2)C1` (centres unmarked) [Example 37, 3-((3-phenoxyazetidin-1-yl)sulfonyl)pyrrolidine-1-carbonitrile] was 10000 to 100000 nM.
